Holding throughout (assay): NCI-60 cell line screen, 48 h
In test [1] the test system is A549 NSCLC.
The test system of test [2] is CAKI-1 renal.
The subject of test [3] is HCC-2998 colon.
For test [4], the system named is HCT-15 colon.
For test [5], the system named is K-562 leukemia.
The test system of test [6] is KM12 colon.
Test [7] concerns OVCAR-5 ovarian.
For test [8], the system named is RXF 393 renal.
Test [9] has as its system SF-295 CNS.
Test [10] has as its system SK-MEL-28 melanoma.

Where “and” joins values, the source holds several entries; their conditions need not be identical. Equal values may be shown once.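 Protocol summary: plate cells (96-well), add compound at 5 concentrations, incubate 48 h, interpolate endpoints linearly. GI50 marks 50% less growth. The concentration for full growth arrest is given as TGI.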

In the case of `CC(C)c1cccc(O)c(=O)c1`, the GI50 in test [1] was 2.42 µg/mL; in test [2], 2.97 µg/mL; in test [3], 1.63 µg/mL; in [4], 0.997 µg/mL; in test [5], 2.38 µg/mL; in test [6], 2.41 µg/mL. For the same compound, the GI50 in test [7] was 75 µg/mL; in [8], 0.116 µg/mL; in test [9], 2.52 µg/mL; in test [10], 0.138 µg/mL. Also, the TGI in test [1] was > 75 µg/mL and > 74.5 µM; in [4], > 75 µg/mL and > 100 µM; in test [6], > 75 µg/mL and > 100 µM; in test [7] it was > 75 µg/mL and > 100 µM; in test [9], 71.6 µg/mL and > 100 µM.

Consider `CCC1(OC(=O)CN)C(=O)OCc2c1cc1n(c2=O)Cc2cc3ccccc3nc2-1` (stereo unspecified), for which the GI50 is 0.0472 µM in test [1]; 0.00739 µM in [2]; 0.175 µM in test [3]; 0.192 µM in [4]; 0.17 µM in test [5]; 0.022 µM in test [6]. Besides, the GI50 in test [7] is 0.0728 µM; in test [8], 0.148 µM; in [9], 0.00249 µM; in test [10], 0.851 µM. The TGI in test [1] is 2.28 µM; in test [3] it was 1.08 µM; in test [4] it was over 20.3 µM; in [5] it was over 100 µM; in [6], 0.754 µM and 4.01 µM; in test [7], 0.6 µM and 0.533 µM. Also, the TGI was 0.88 µM and 0.307 µM in test [8]; 38.7 µM in test [10].

Regarding `COc1cc(NS(C)(=O)=O)ccc1NCc1c2ccccc2nc2ccccc12`, the TGI in test [1], in [2], in [3], in test [4], in test [5] and in test [6] was over 100 µM each time. In addition, the TGI in test [7] is over 100 µM; in test [8] it was 57.5 µM; in test [9], over 100 µM; in test [10], over 100 µM.

On to `COC(=O)C(CC(=O)Nc1ccc(Cl)c(Cl)c1)C(=O)C(=O)Nc1ccc(Cl)c(Cl)c1` (stereo unspecified), for which the TGI in test [1], in [2], in [3], in test [4], in test [5] and in test [6] was over 100 µM throughout. Further, the TGI in test [7], in test [8], in test [9] and in test [10] was over 100 µM throughout.

On to `Cc1cccc(C)c1N1C(=O)C(=O)C(c2nc3ccccc3s2)/C(=N/NC(=O)c2ccccc2O)C1=O` (stereo unspecified), for which the TGI in test [1] was over 100 µM; in test [2], over 29.8 µM; in test [3], over 73.1 µM; in test [4], over 100 µM; in test [5], over 57 µM; in test [6], over 100 µM. Further, the TGI was over 100 µM in [7], 17.2 µM in [8], over 100 µM in test [9] and over 83.1 µM in [10].

Consider `N#C/C(=N\Nc1ccccc1)C(=O)Nc1cc(-c2ccccc2)nn1-c1ccccc1`, for which the GI50 in [1] was 2.95 µM; in test [2] it was 2.88 µM; in test [3] it was 3.81 µM; in [4] it was 2.98 µM; in test [5], 2.43 µM; in [6] it was 2.97 µM. Moreover, the GI50 was 3.39 µM in [7], 2.26 µM in test [8], 3.14 µM in [9] and 3.78 µM in test [10]. In addition, the TGI in [1], in test [2], in test [3], in [4], in test [5] and in test [6] was over 100 µM throughout. Also, the TGI was over 100 µM in test [7], 7.69 µM in test [8], over 100 µM in [9] and over 100 µM in test [10].

In the case of `CO[C@H]1C[C@](C)(O)Cc2cc3c(c(O)c21)C(=O)c1c(O)cc2c(c1C3=O)O[C@@H]1O[C@@]2(C)[C@H](O)[C@@H](N(C)C)[C@@H]1O`, the GI50 in test [1] was 0.139 µM; in [2] it was 0.114 µM; in test [3] it was 1.48 µM; in test [6] it was 1.39 µM; in [7], 1.37 µM; in test [8], 1.9 µM. Also, the GI50 was 0.513 µM in test [9] and 1.62 µM in test [10]. Also, the TGI in test [1] was 1.61 µM and 3.02 µM; in [2], 2.1 µM and 1.59 µM; in test [3], 3.04 µM and 11.9 µM; in test [4], 3.4 µM and 10.9 µM; in test [5] it was 6.65 µM and 15.7 µM; in test [6], 3.18 µM and 11.4 µM. In addition, the TGI in test [7] was 3.3 µM and 15 µM; in test [8], 4.01 µM and 4.21 µM; in test [9], 1.96 µM and 2.14 µM; in test [10], 3.35 µM and 19.4 µM.

Regarding `CO/N=C(\C([O-])=N\[n+]1cnn(CC(=O)OC(C)(C)C)c1)c1csc(NC(c2ccccc2)(c2ccccc2)c2ccccc2)n1`, the TGI in test [1], in test [2], in test [3], in [4], in test [5] and in [6] was over 10 µM each time. The TGI in test [7], in test [8], in test [9] and in test [10] was over 10 µM throughout.

Turning to `C=C1C(=O)O[C@H]2[C@H]1CC/C(Cn1cc(-c3ccc(F)cc3)nn1)=C\CC[C@@]1(C)O[C@@H]21`, the GI50 in test [1] is 3.37 µM; in test [2], 1.03 µM; in [3], 1.74 µM; in test [4], 0.282 µM; in test [5] it was 0.948 µM; in [6], 1.7 µM. Moreover, the GI50 is 1.48 µM in [7], 0.874 µM in test [8], 5.73 µM in test [9] and 0.822 µM in [10]. Besides, the TGI in [1] was 12.9 µM; in test [2], 2.23 µM; in test [3] it was 3.3 µM; in test [4], 1.19 µM; in test [5], 4.84 µM; in [6], 3.43 µM. Besides, the TGI in test [7] was 3.13 µM; in test [8], 2.13 µM; in [9] it was 19.1 µM; in [10], 2.21 µM.

The record behind these values is PubChem BioAssay (NCI).
